This passage reports EC50 results from patent US8957062B2, “Substituted cyclopropyl compounds, compositions containing such compounds and methods of treatment” (Merck Sharp & Dohme Corp., priority 2011, dated 2015).

Molecules are shown by their SMILES.

The EC50 is the midpoint of the concentration-response curve.

This assay concerns the target T1, human GPR119 (Homo sapiens, UniProt Q8TDV5).
T1 sequence (Q8TDV5 1-308 limits assumed): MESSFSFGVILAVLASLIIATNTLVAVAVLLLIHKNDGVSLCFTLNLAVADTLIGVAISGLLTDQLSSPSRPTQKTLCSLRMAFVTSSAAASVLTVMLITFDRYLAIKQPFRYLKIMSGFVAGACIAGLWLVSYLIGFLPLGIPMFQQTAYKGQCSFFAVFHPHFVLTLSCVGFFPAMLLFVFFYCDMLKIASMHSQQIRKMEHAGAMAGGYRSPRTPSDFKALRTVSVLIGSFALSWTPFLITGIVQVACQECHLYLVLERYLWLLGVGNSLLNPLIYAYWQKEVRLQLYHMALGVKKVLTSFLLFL
Kind of assay: Measurement of GPR119 signaling (cAMP assay) in cells stably transfected with human GPR119. The class given is cell-based. The following applies: table column; cAMP stimulation, human GPR119; read-out: GPR119 Human EC50.

As for `CC(C)c1noc(N2CCC([C@H]3C[C@H]3CCOc3cc(F)c(C(=O)C4CC4)c(F)c3)CC2)n1` [Example 120], the EC50 amounted to 0.1 nM.

Regarding `CCCC(=O)c1c(F)cc(OCC[C@@H]2C[C@@H]2C2CCN(c3nc(C(C)C)no3)CC2)cc1F` [Example 121], the EC50 was 0.1 nM.

For `CC(C)c1noc(N2CCC([C@H]3C[C@H]3CCOc3cc(F)c(C(=O)NC(C)(C)CO)c(F)c3)CC2)n1` [Example 122], the EC50 stood at 10 nM.

On to `CC(C)c1noc(N2CCC([C@H]3C[C@H]3CCOc3ccc(S(C)(=O)=O)cc3F)CC2)n1` [Example 123], for which the EC50 came to 3.8 nM.

In the case of `Cc1cc(OCC[C@@H]2C[C@@H]2C2CCN(c3nc(C(C)C)no3)CC2)ccc1-n1cnnn1` [Example 124], the EC50 turned out to be 2.6 nM.

Take `COc1cc(OCC[C@@H]2C[C@@H]2C2CCN(c3nc(C(C)C)no3)CC2)ccc1-n1cnnn1` [Example 125]: the EC50 came to 11 nM.

Take `CC(C)c1noc(N2CCC([C@H]3C[C@H]3CCOc3ccc(CC(=O)N4CCCC4)cc3)CC2)n1` [Example 126]: the EC50 was 1.4 nM.

As to `CC(C)c1noc(N2CCC([C@H]3C[C@H]3CCOc3ccc(CC(=O)N4C[C@@H](F)[C@H](F)C4)cc3)CC2)n1` [Example 127], the EC50 is 1.1 nM.

As to `CC(C)c1noc(N2CCC([C@H]3C[C@H]3CCOc3ccc(CC(=O)N4CCC4)cc3)CC2)n1` [Example 128], the EC50 was 1.8 nM.

As for `CC(C)c1noc(N2CCC([C@H]3C[C@H]3CCOc3ccc(CC(=O)N4CC(F)C4)cc3)CC2)n1` [Example 129], the EC50 was 1.5 nM.

Turning to `CC(C)c1noc(N2CCC([C@H]3C[C@H]3CCOc3ccc(S(C)(=O)=O)nc3)CC2)n1` [Example 130], the EC50 came to 10.6 nM.

For the compound `CC(C)c1noc(N2CCC([C@H]3C[C@H]3CCOc3ccc(CC(=O)N4CC(F)(F)C4)cc3)CC2)n1` [Example 132], the EC50 was 2.7 nM.

For the compound `CC(C)c1noc(N2CCC([C@H]3C[C@H]3CCOc3ccc(CC(=O)N4CCOCC4)cc3)CC2)n1` [Example 133], the EC50 turned out to be 6 nM.

Turning to `CC(C)c1noc(N2CCC([C@H]3C[C@H]3CCOc3ccc(CC(=O)N4CC[C@@H](F)C4)cc3)CC2)n1` [Example 134], the EC50 was 5.3 nM.

Take `COC1CN(C(=O)Cc2ccc(OCC[C@@H]3C[C@@H]3C3CCN(c4nc(C(C)C)no4)CC3)cc2)C1` [Example 135]: the EC50 turned out to be 8.5 nM.

As to `CCN(CC)C(=O)Cc1ccc(OCC[C@@H]2C[C@@H]2C2CCN(c3nc(C(C)C)no3)CC2)cc1` [Example 136], the EC50 was 3.9 nM.

For the compound `CC(C)c1noc(N2CCC([C@H]3C[C@H]3CCOc3ccc(CC(=O)N(C)C)cc3)CC2)n1` [Example 137], the EC50 turned out to be 6.7 nM.

For the compound `CC(C)c1noc(N2CCC([C@H]3C[C@H]3CCOc3ccc(CC(=O)N4CCC4)c(F)c3)CC2)n1` [Example 138], the EC50 was determined as 2 nM.

For the compound `CC(C)c1noc(N2CCC([C@H]3C[C@H]3CCOc3ccc(CC(=O)N4CC(O)C4)c(F)c3)CC2)n1` [Example 139], the EC50 was 6 nM.

Take `CC(C)c1noc(N2CCC([C@H]3C[C@H]3CCOc3ccc(CC(=O)N4CC(C)(O)C4)c(F)c3)CC2)n1` [Example 140]: the EC50 was found to be 3.6 nM.

On to `COC1CN(C(=O)Cc2ccc(OCC[C@@H]3C[C@@H]3C3CCN(c4nc(C(C)C)no4)CC3)cc2F)C1` [Example 141], for which the EC50 stood at 0.93 nM.

As to `CC(C)c1noc(N2CCC([C@H]3C[C@H]3CCOc3ccc(CC(=O)N4CCOCC4)c(F)c3)CC2)n1` [Example 142], the EC50 turned out to be 0.84 nM.

For the compound `CC(C)c1noc(N2CCC([C@H]3C[C@H]3CCOc3ccc(CC(=O)N(C)C)c(F)c3)CC2)n1` [Example 143], the EC50 came to 0.94 nM.

Consider `CCN(CC)C(=O)Cc1ccc(OCC[C@@H]2C[C@@H]2C2CCN(c3nc(C(C)C)no3)CC2)cc1F` [Example 144], for which the EC50 stood at 1.8 nM.
